The results in this text go back to patent EP2527322A1, “Carbamyl alkylphenyl disulfide derivatives and their therapeutic uses” (NOSCIRA, S.A., priority 2011, dated 2012).

The target of experiment [1] is T1, human recombinant GSK3β (Homo sapiens, UniProt P49841).
T1 construct: 6His (N); purchased Millipore (Billerica, MA, USA)
Briefly: GSK-3β enzymatic assay (Z'-LYTE FRET). In kind it is biochemical. To be noted: 2 nM enzyme, 12.5 µM ATP, 2 µM substrate peptide, 60 min incubation at room temperature; read-out: GSK3β inhibition average EC50. How it is done: The enzymatic activity of GSK3β was determined with a commercial system based on the Z'-LYTE® technology, available from Invitrogen Life Technologies (Carlsbad, CA, USA), using human recombinant GSK3β (N-terminal 6His-tagged recombinant enzyme with an H350L mutation) from Millipore (Billerica, MA, USA) as the enzyme source. This technology utilizes the fluorescence resonance energy transfer ("FRET") process between fluorescein and coumarin. The assay principle is based on the differential sensitivity of phosphorylated and non-phosphorylated peptide to proteolytic cleavage, which precludes the energy transfer process between the two fluorophores attached to both sides of the cleavage site. […] The assay is performed in 384-well black plates, in a final volume of 10 µl, with 2 nM enzyme concentration in 50 mM Hepes pH 7.5, 50 mM MgCl2, 1 mM EGTA and 0.05% Brij-35, using 12.5 µM ATP and 2 µM substrate peptide. The latter is a synthetic peptide, provided by Invitrogen under the commercial name "Ser/Thr 9 peptide", and it is based upon the sequence of a GSK3β substrate protein (glycogen synthase I) containing Ser-641. The peptide is labeled at both ends with fluorescein and coumarin. The assay is carried out in the presence of different concentrations of the tested compound, at a final 1% (v/v) DMSO concentration. After a 60 min incubation at room temperature, 5 µl of a commercial protease solution (sold by the same vendor in the assay kit) is added and a subsequent 1h incubation at room temperature is performed, before adding 5 µl of a suitable "stop solution", also provided by the vendor in the kit. After that, fluorescence intensity is recorded, monitoring emission at both 445 and 520 nm, upon excitation at 400 nm. An emission ratio is finally calculated, using the quotient among the emission at 445 nm divided by that at 520 nm.
The emission ratio of each tested sample is normalized to that of the control wells, so that for every compound concentration the percentage of inhibition is calculated by using the following equation: %Inhibition = 100⋅(E-S)/(E-B) [formula] wherein "S" is the emission ratio of the sample being considered, "E" is the average emission ratio of wells, including enzyme in the absence of inhibitors, and "B" is the average emission ratio of wells without enzyme. The inhibition values obtained at every compound concentration are finally used to calculate the EC50 of the tested compound, this parameter being the concentration of the compound which causes 50% of inhibition. For that purpose, the data were fitted to a classical 4-parameters isotherm equation using the nonlinear regression function of GraphPad™ Prism 5.0 (GraphPad Software Inc.). Such equation is described below: % Inhibition = L + (H-L)/(1 + (((EC50)/(C)))^n) [formula] wherein "L" is the lower asymptote of the theoretical sigmoidal curve, "H" is the higher asymptote, "C" is the concentration of compound and "n" is the Hill coefficient.

In experiment [2] the test system is phosphorylation at the Ser-396 residue of Tau protein in human neuroblastoma SH-SY5Y cells. Briefly: Cellular assay: Tau Ser-396 phosphorylation by ELISA in SH-SY5Y cells. In kind it is cell-based. To be noted: 18 h incubation at 37°C, 1% (v/v) DMSO, read-out: pSer396-Tau average EC50. How it is done: The effect of the compound in cells is determined by monitoring the level of phosphorylation at the Ser-396 residue of Tau protein in human neuroblastoma SH-SY5Y cells. Cells are grown in 96-well plates: 30,000 cells per well in a volume of 100 µl of 1:1 MEM:Ham's F12 medium including 10% (v/v) fetal bovine serum, 100 U/ml penicillin, 100 µg/ml streptomycin and 1% (v/v) 100-fold concentrated commercial stock of non-essential aminoacids (Gibco, Carlsbad, CA, USA), and incubated at 37°C during 24 h. Then, the corresponding amount of test compound is added to the wells to reach the desired concentration in 1% (v/v) DMSO. […] 60 µl of this mixture is then placed in an empty 96-well plate and the levels of Ser-396 phosphorylation are determined using a commercial ELISA kit (Biosource, Carlsbad, CA, USA), following manufacturer's instructions. The levels of phosphorylation are expressed as percentage values, after normalizing them to those in untreated cells and those values are used to calculate EC50s, as described above for GSK-3.

T1 sequence (P49841 whole entry): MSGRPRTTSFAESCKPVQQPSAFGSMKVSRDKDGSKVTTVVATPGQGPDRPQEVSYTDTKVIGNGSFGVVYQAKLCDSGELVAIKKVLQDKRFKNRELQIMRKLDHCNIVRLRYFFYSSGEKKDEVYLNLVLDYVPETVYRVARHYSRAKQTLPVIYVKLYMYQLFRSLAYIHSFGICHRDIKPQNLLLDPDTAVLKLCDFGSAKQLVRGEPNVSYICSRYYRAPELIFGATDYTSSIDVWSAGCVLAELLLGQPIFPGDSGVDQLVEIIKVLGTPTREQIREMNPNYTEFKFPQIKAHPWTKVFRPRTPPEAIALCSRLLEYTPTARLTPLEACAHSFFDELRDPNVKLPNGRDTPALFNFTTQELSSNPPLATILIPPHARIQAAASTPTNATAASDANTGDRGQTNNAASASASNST

In the case of `COC(=O)CN(C)C(=O)SSCc1ccccc1` [Compound 1, [Methyl-(4-phenyl-2,3-dithia-butyryl)-amino]-acetic acid methyl ester], the EC50 in experiment [1] stood at 0.29 µM; in experiment [2], 4.2 µM.
As to `CCOC(=O)CNC(=O)SSCc1ccccc1` [Compound 2, (4-Phenyl-2,3-dithia-butyrylamino)-acetic acid ethyl ester], the EC50 in experiment [1] turned out to be 0.46 µM.
On the same count and under the same terms, then `CCOC(=O)[C@H](Cc1ccccc1)NC(=O)SSCc1ccccc1` [Compound 3, (2S) 3-Phenyl-2-(4-phenyl-2,3-dithia-butyrylamino)-propionic acid ethyl ester], with 3.9 µM; and `CCOC(=O)[C@H](Cc1ccc(O)cc1)NC(=O)SSCc1ccccc1` [Compound 4, (2S) 3-(4-Hydroxy-phenyl)-2-(4-phenyl-2,3-dithia-butyrylamino)-propionic acid ethyl ester], with 1.5 µM; and `CCOC(=O)[C@H](CC(C)C)NC(=O)SSCc1ccccc1` [Compound 5, (2S) 4-Methyl-2-(4-phenyl-2,3-dithia-butyrylamino)-pentanoic acid ethyl ester], with 14 µM.
The same measure, in the same setting: then `CCOC(=O)CCNC(=O)SSCc1ccccc1` [Compound 7, 3-(4-Phenyl-2,3-dithia-butyrylamino)-propionic acid ethyl ester], with 0.91 µM.
As to `CCOC(=O)CC[C@H](NC(=O)SSCc1ccccc1)C(=O)OCC` [Compound 8, (2S) 2-(4-Phenyl-2,3-dithia-butyrylamino)-pentanedioic acid diethyl ester], the EC50 in experiment [1] came to 6.8 µM.
The same measure, in the same setting: the value for `CCOC(=O)[C@H](C)NC(=O)SSCc1ccccc1` [Compound 9, (2S) 2-(4-Phenyl-2,3-dithia-butyrylamino)-propionic acid ethyl ester] was 5.4 µM; that for `COC(=O)CC(NC(=O)SSCc1ccccc1)C(=O)OC` (centres unmarked) [Compound 10] was 8.7 µM; that for `COC(=O)[C@@H](Cc1c[nH]c2ccccc12)NC(=O)SSCc1ccccc1` [Compound 11] was 3.3 µM.
Same read-out and setting: the value for `CCOC(=O)CN(Cc1ccccc1)C(=O)SSCc1ccccc1` [Compound 12] was 0.26 µM.
On to `CCOC(=O)CN(CC(=O)OCC)C(=O)SSCc1ccccc1` [Compound 13], for which the EC50 in experiment [1] was 0.22 µM.
Turning to `COC(=O)[C@@H]1CCCN1C(=O)SSCc1ccccc1` [Compound 14], the EC50 in experiment [1] was determined as 0.13 µM.
Still for that read-out and setting: then `COC(=O)C(Cc1ccccc1)NC(=O)SSCc1ccccc1` (centres unmarked) [Compound 16], with 1.3 µM; and `O=C(SSCc1ccccc1)N1C(=O)c2ccccc2C1=O` [Compound 17], with 0.47 µM.
On the same count and under the same terms, then `CN(C(=O)SSCc1ccccc1)C(=O)c1ccccc1` [Compound 18], with 10 µM.
